From ChEMBL document CHEMBL4507311, “Data for DCP probe A-1155463” (2021)

How the values were obtained:
[1] = target: T1, Alpha-2A adrenergic receptor (Homo sapiens) (UniProt P08913); experiment: Alpha2A (h) Eurofins-Cerep binding assay; parameters: ligand concentration 1 nM; details: filed as antagonist, Compound concentration 10.0 uM
T1 sequence (whole entry): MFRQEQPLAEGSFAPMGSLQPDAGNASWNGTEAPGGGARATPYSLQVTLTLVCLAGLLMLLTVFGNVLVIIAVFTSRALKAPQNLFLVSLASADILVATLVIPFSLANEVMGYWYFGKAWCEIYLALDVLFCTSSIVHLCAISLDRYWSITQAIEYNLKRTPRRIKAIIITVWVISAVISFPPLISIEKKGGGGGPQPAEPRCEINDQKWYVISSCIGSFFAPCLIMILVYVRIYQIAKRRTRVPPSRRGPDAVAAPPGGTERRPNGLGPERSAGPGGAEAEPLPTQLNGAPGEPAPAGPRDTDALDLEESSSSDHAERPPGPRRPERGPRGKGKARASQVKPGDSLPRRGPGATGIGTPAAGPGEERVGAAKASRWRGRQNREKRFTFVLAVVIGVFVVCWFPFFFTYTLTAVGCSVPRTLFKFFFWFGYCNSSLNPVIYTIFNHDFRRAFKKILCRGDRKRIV

[2] = target: MAO-A (amine oxidase [flavin-containing] A) (Rattus norvegicus, UniProt P21396); experiment: MAO-A Eurofins-Cerep binding assay; parameters: incubation time 60 min, incubation temperature 37°C, ligand concentration 10 nM; details: rat cerebral cortex, probe [3H]Ro 41-1049 (10 nM), compound concentration 10 uM, read-out: % Inhibition of Control Specific Binding (Mean n=2)
[3] = target: Melatonin receptor type 1B (Homo sapiens) (UniProt P49286); experiment: MT2 (ML1B) (h) Eurofins-Cerep binding assay; parameters: ligand concentration 0.05 nM; details: filed as agonist, Compound concentration 10.0 uM
[4] = target: cGMP-inhibited 3',5'-cyclic phosphodiesterase 3A (Homo sapiens) (UniProt Q14432); experiment: PDE3A (h) Eurofins-Cerep enzyme and uptake assay; details: Compound concentration 10.0 uM
[5] = target: Prostaglandin G/H synthase 1 (Homo sapiens) (UniProt P23219); experiment: COX1(h) Eurofins-Cerep enzyme and uptake assay; details: Compound concentration 10.0 uM
[6] = target: 5-hydroxytryptamine receptor 2B (Homo sapiens) (UniProt P41595); experiment: 5-HT2B (h) Eurofins-Cerep binding assay; parameters: ligand concentration 0.2 nM; details: filed as agonist, Compound concentration 10.0 uM
[7] = target: Sodium-dependent dopamine transporter (Homo sapiens) (UniProt Q01959); experiment: dopamine transporter (h) Eurofins-Cerep binding assay; parameters: ligand concentration 4 nM; details: filed as antagonist, Compound concentration 10.0 uM
[8] = target: Vasopressin V1a receptor (Homo sapiens) (UniProt P37288); experiment: V1 a (h) Eurofins-Cerep binding assay; parameters: ligand concentration 0.3 nM; details: filed as agonist, Compound concentration 10.0 uM
[9] = target: Glutamate NMDA receptor (Rattus norvegicus) (UniProt P35439+Q00959+Q00960+Q00961+Q62645+Q8VHN2+Q9R1M7); experiment: PCP Eurofins-Cerep binding assay; type: protein-complex assay; parameters: ligand concentration 10 nM; details: filed as antagonist, Compound concentration 10.0 uM
[10] = target: Cannabinoid receptor 1 (Homo sapiens) (UniProt P21554); experiment: CB1 (h) Eurofins-Cerep binding assay; parameters: ligand concentration 0.5 nM; details: filed as agonist, Compound concentration 10.0 uM
[11] = target: Cholecystokinin receptor type A (Homo sapiens) (UniProt P32238); experiment: CCK1 (CCKA) (h) Eurofins-Cerep binding assay; parameters: ligand concentration 0.08 nM; details: filed as agonist, Compound concentration 10.0 uM
[12] = test system: Mast/stem cell growth factor receptor Kit (Homo sapiens), P10721 [L576P]; details: Compound concentration 1000.0 nM
[13] = test system: Phosphatidylinositol 4,5-bisphosphate 3-kinase catalytic subunit alpha isoform (Homo sapiens), P42336 [E545A]; details: Compound concentration 1000.0 nM
[14] = test system: Tyrosine-protein kinase ABL1 (Homo sapiens), P00519 [E255K]; details: Compound concentration 1000.0 nM
[15] = target: Tyrosine-protein kinase ABL1 (Homo sapiens) (UniProt P00519); details: Compound concentration 1000.0 nM
[16] = target: Casein kinase I isoform epsilon (Homo sapiens) (UniProt P49674); details: Compound concentration 1000.0 nM
[17] = target: Receptor-interacting serine/threonine-protein kinase 2 (Homo sapiens) (UniProt O43353); details: Compound concentration 1000.0 nM
[18] = target: Cyclin-dependent kinase 17 (Homo sapiens) (UniProt Q00537); details: Compound concentration 1000.0 nM
[19] = target: Ephrin type-B receptor 6 (Homo sapiens) (UniProt O15197); details: Compound concentration 1000.0 nM
[20] = test system: Mast/stem cell growth factor receptor Kit (Homo sapiens), P10721 [D816V]; details: Compound concentration 1000.0 nM
[21] = test system: Tyrosine-protein kinase ABL1 (Homo sapiens), P00519 [M351T]; details: Compound concentration 1000.0 nM
[22] = target: Serine/threonine-protein kinase/endoribonuclease IRE1 (Homo sapiens) (UniProt O75460); details: Compound concentration 1000.0 nM
[23] = target: Serine/threonine-protein kinase Nek9 (Homo sapiens) (UniProt Q8TD19); details: Compound concentration 1000.0 nM
[24] = target: Dual specificity mitogen-activated protein kinase kinase 1 (Homo sapiens) (UniProt Q02750); details: Compound concentration 1000.0 nM
[25] = target: Tyrosine-protein kinase HCK (Homo sapiens) (UniProt P08631); details: Compound concentration 1000.0 nM
[26] = target: Dual specificity testis-specific protein kinase 1 (Homo sapiens) (UniProt Q15569); details: Compound concentration 1000.0 nM
[27] = target: Mitogen-activated protein kinase kinase kinase kinase 4 (Homo sapiens) (UniProt O95819); details: Compound concentration 1000.0 nM
[28] = target: Cyclin-dependent kinase-like 1 (Homo sapiens) (UniProt Q00532); details: Compound concentration 1000.0 nM
[29] = target: Phosphatidylinositol 4,5-bisphosphate 3-kinase catalytic subunit gamma isoform (Homo sapiens) (UniProt P48736); details: Compound concentration 1000.0 nM
[30] = target: Beta-2 adrenergic receptor (Homo sapiens) (UniProt P07550); details: Compound concentration 10.0 uM
[31] = target: Inhibitor of nuclear factor kappa-B kinase subunit alpha (Homo sapiens) (UniProt O15111); details: Compound concentration 1000.0 nM
[32] = test system: Receptor-type tyrosine-protein kinase FLT3 (Homo sapiens), P36888 [D835Y]; details: Compound concentration 1000.0 nM
[33] = target: Myosin light chain kinase 2, skeletal/cardiac muscle (Homo sapiens) (UniProt Q9H1R3); details: Compound concentration 1000.0 nM
[34] = target: Calcium/calmodulin-dependent protein kinase type II subunit delta (Homo sapiens) (UniProt Q13557); details: Compound concentration 1000.0 nM
[35] = target: Serine/threonine-protein kinase Sgk3 (Homo sapiens) (UniProt Q96BR1); details: Compound concentration 1000.0 nM
[36] = target: Calcium/calmodulin-dependent protein kinase type II subunit alpha (Homo sapiens) (UniProt Q9UQM7); details: Compound concentration 1000.0 nM
[37] = target: LIM domain kinase 2 (Homo sapiens) (UniProt P53671); details: Compound concentration 1000.0 nM

Chain of MAO-A (amine oxidase [flavin-containing] A) (P21396 whole entry): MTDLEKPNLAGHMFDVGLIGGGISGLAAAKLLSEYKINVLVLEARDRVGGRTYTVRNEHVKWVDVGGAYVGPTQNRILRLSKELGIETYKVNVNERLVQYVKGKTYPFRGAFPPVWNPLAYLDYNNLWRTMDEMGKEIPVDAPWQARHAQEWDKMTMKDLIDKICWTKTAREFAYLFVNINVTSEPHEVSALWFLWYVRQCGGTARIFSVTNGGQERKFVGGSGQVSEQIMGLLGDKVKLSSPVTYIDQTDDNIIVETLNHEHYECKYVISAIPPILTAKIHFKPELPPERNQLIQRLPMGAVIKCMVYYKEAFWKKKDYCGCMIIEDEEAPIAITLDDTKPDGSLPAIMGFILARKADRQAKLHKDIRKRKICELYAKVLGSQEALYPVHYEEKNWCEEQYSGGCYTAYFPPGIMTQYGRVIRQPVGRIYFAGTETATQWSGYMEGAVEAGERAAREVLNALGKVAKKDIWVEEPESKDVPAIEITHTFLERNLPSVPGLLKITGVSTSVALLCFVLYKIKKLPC
Chain of Sodium-dependent dopamine transporter (Homo sapiens) (Q01959 whole entry): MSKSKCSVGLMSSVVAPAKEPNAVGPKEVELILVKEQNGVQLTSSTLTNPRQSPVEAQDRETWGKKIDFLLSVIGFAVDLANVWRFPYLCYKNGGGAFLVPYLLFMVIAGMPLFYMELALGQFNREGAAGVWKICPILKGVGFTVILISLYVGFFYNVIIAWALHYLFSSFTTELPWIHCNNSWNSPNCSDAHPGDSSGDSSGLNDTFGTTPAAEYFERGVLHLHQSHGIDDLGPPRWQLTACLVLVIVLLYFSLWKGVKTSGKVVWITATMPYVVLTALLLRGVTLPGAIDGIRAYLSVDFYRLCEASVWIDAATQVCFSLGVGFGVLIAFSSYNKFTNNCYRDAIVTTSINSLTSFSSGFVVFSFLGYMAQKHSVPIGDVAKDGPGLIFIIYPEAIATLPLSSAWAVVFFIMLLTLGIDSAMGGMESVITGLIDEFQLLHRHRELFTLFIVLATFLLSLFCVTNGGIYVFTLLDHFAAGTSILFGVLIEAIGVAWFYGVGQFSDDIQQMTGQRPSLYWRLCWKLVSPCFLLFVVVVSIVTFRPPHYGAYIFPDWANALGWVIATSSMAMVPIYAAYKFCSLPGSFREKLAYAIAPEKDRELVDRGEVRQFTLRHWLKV
Chain of Vasopressin V1a receptor (Homo sapiens) (P37288 whole entry, looked up): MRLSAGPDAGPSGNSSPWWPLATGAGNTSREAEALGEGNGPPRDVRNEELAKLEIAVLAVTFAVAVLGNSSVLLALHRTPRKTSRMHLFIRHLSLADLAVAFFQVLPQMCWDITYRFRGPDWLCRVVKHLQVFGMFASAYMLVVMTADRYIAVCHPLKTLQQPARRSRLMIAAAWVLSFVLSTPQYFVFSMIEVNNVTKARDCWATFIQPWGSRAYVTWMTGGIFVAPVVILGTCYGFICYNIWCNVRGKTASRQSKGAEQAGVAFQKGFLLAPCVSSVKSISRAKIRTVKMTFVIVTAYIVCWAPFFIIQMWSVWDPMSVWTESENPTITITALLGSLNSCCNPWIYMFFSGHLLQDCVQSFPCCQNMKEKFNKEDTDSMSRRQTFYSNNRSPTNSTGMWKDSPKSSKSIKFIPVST
Chain of Melatonin receptor type 1B (Homo sapiens) (P49286 whole entry): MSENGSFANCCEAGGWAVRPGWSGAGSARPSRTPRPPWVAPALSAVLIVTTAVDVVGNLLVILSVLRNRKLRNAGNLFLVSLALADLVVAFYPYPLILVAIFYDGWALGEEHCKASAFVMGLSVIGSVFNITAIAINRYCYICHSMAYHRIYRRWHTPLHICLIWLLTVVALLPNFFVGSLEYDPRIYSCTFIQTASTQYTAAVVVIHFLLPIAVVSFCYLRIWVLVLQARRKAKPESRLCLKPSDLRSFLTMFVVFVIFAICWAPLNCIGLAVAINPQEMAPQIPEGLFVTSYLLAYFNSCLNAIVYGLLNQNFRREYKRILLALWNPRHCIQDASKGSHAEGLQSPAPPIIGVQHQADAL
Chain of Prostaglandin G/H synthase 1 (Homo sapiens) (P23219 whole entry): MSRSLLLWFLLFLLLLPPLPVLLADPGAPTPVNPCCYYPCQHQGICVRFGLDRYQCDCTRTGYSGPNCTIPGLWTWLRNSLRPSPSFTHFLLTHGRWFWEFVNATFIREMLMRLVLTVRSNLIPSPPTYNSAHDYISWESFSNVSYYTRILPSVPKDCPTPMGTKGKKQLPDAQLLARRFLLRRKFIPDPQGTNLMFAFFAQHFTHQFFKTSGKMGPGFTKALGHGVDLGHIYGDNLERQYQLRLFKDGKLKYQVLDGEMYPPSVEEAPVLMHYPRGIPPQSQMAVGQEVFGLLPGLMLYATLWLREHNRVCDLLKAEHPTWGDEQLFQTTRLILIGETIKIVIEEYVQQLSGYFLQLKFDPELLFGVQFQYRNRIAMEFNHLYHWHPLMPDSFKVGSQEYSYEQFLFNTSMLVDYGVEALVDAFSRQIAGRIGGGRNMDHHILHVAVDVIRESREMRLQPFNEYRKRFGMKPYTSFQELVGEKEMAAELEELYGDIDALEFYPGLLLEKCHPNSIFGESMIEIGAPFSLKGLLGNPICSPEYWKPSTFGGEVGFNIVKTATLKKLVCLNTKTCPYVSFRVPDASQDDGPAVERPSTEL
Chain of cGMP-inhibited 3',5'-cyclic phosphodiesterase 3A (Homo sapiens) (Q14432 whole entry): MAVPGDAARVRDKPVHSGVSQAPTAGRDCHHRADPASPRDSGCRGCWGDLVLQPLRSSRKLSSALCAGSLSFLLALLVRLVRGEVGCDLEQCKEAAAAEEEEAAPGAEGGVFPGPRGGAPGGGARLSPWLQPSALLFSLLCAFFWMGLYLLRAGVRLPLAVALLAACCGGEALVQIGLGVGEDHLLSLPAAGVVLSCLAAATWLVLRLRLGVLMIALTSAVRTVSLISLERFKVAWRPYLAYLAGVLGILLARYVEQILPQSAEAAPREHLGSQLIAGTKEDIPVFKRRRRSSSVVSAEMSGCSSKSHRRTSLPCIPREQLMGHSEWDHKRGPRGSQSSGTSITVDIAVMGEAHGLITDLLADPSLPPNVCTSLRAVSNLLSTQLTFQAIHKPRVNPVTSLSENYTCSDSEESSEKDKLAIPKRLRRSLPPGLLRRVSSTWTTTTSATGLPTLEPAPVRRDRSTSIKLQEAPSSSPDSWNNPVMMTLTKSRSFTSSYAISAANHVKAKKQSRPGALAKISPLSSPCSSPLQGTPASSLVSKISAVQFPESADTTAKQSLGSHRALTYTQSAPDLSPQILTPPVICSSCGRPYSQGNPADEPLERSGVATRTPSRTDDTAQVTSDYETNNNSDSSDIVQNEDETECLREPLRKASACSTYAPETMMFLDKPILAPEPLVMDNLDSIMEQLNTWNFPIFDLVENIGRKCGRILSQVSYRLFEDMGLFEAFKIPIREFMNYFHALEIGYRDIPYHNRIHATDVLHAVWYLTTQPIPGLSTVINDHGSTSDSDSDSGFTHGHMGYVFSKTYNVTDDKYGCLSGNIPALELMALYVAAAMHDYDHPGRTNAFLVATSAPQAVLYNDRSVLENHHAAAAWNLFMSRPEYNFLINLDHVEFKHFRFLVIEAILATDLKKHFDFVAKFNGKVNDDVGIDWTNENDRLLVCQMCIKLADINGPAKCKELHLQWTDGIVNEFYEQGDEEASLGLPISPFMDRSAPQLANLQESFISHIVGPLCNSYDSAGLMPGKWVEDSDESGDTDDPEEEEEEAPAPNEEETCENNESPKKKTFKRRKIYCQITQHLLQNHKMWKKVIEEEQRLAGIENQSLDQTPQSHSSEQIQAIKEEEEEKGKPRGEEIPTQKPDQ
Chain of Cannabinoid receptor 1 (Homo sapiens) (P21554 whole entry): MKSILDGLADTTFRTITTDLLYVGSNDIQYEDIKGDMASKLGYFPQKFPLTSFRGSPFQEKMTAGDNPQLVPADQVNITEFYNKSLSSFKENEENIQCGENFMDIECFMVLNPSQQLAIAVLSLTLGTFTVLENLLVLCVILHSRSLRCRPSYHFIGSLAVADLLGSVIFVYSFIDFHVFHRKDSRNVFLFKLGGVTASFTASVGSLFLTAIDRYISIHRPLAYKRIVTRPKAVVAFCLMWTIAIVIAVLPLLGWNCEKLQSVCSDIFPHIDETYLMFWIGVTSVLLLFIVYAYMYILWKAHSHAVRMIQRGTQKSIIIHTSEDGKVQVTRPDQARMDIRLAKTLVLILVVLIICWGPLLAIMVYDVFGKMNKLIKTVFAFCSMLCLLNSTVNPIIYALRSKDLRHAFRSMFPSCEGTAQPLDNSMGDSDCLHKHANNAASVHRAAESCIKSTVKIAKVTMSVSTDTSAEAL
Chain of 5-hydroxytryptamine receptor 2B (Homo sapiens) (P41595 whole entry): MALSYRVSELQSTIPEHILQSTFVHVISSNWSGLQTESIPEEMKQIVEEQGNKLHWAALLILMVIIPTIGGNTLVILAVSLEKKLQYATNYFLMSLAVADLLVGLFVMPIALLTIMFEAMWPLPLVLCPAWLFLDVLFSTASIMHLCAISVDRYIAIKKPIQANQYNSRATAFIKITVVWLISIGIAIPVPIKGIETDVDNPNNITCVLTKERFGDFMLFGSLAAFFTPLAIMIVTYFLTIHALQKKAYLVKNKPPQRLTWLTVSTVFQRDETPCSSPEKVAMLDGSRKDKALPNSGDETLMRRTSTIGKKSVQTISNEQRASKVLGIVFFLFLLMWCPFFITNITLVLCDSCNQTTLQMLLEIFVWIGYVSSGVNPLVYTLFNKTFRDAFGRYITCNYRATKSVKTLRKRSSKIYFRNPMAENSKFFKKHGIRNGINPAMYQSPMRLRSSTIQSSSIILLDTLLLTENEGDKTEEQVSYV
Chain of Dual specificity mitogen-activated protein kinase kinase 1 (Homo sapiens) (Q02750 whole entry): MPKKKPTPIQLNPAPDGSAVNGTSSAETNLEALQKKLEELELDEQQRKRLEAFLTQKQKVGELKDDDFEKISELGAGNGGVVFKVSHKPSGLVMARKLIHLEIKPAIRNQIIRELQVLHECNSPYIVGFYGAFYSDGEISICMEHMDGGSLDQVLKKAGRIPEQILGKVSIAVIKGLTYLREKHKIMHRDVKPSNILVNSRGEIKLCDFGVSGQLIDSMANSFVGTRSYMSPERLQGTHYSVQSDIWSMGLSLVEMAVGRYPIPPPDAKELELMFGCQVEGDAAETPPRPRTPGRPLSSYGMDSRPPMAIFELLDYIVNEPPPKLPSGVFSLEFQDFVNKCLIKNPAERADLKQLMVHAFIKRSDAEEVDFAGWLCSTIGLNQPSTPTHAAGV

O=C(Nc1nc2ccccc2s1)c1cccc2c1CN(c1nc(C(=O)O)c(CCOc3ccc(-n4ncc5cncnc54)cc3)s1)CC2 [A-1107969]
% Inhibition of Control Specific Binding (Mean n=2) [1]: 1.9% | inhibition at 60 min, 10 µM [2]: 11.1% | % Inhibition of Control Specific Binding (Mean n=2) [3]: 8.7% | % Inhibition of Control Values (Mean n=2) [4]: -7.5% | % Inhibition of Control Values (Mean n=2) [5]: 68.2% | % Inhibition of Control Specific Binding (Mean n=2) [6]: -44.2% | % Inhibition of Control Specific Binding (Mean n=2) [7]: 3.6% | % Inhibition of Control Specific Binding (Mean n=2) [8]: 4.8% | % Inhibition of Control Specific Binding (Mean n=2) [9]: 2.8% | % Inhibition of Control Specific Binding (Mean n=2) [10]: -4.1% | % Inhibition of Control Specific Binding (Mean n=2) [11]: 68.9%

CN(C)CC#Cc1ccc(OCCCc2sc(N3CCc4cccc(C(=O)Nc5nc6ccccc6s5)c4C3)nc2C(=O)O)c(F)c1 [A-1155463]
residual activity [12]: 95% | % Inhibition of Control Specific Binding (Mean n=2) [1]: 12.1% | inhibition at 60 min, 10 µM [2]: 74.5% | residual activity [13]: 100% | residual activity [14]: 85% | residual activity [15]: 93% | residual activity [16]: 86% | residual activity [17]: 100% | % Inhibition of Control Specific Binding (Mean n=2) [3]: 20.1% | % Inhibition of Control Values (Mean n=2) [4]: -17.3% | % Inhibition of Control Values (Mean n=2) [5]: 39.5% | % Inhibition of Control Specific Binding (Mean n=2) [6]: -46.8% | % Inhibition of Control Specific Binding (Mean n=2) [7]: 31.6% | residual activity [18]: 99% | % Inhibition of Control Specific Binding (Mean n=2) [8]: 5.3% | residual activity [19]: 100% | % Inhibition of Control Specific Binding (Mean n=2) [9]: 7.8% | residual activity [20]: 100% | % Inhibition of Control Specific Binding (Mean n=2) [10]: 2.6% | % Inhibition of Control Specific Binding (Mean n=2) [11]: 98.9% | residual activity [21]: 91% | residual activity [22]: 84% | residual activity [23]: 95% | residual activity [24]: 100% | residual activity [25]: 100% | residual activity [26]: 100% | residual activity [27]: 96% | residual activity [28]: 100% | residual activity [29]: 100% | inhibition [30]: 27.1% | residual activity [31]: 81% | residual activity [32]: 83% | residual activity [33]: 100% | residual activity [34]: 72% | residual activity [35]: 100% | residual activity [36]: 64% | residual activity [37]: 96%
